# Source: patent publication US12545640B2, “Substituted 6,7-dihydro-5H-benzo[7]annulene compounds, processes for their preparation and therapeutic uses thereof” (SANOFI, priority 2019, dated 2026)
# Molecular target: T1, ERα (Homo sapiens, UniProt P03372)
# T1 construct: host or cells: MCF7 cells
# T1 sequence (P03372 1-595): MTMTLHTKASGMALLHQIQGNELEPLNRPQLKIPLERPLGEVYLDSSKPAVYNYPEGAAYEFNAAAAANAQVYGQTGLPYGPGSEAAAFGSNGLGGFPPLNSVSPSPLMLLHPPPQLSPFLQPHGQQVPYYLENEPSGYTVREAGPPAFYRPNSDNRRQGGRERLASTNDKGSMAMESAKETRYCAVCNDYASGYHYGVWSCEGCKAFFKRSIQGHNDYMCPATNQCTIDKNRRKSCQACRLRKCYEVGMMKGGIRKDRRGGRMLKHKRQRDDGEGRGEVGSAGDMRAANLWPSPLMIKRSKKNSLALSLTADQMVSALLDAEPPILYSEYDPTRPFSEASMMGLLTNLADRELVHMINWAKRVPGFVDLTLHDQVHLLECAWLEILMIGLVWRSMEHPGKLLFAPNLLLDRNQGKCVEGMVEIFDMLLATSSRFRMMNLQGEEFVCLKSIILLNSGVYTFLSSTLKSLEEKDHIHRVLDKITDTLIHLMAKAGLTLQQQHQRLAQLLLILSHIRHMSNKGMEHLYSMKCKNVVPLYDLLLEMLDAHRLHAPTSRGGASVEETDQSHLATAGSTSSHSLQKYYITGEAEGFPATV
# Assay: Estrogen receptor degradation activity: breast cancer cell ERα in cell western assay (MCF7 cells)
# Type: cell-based
# Conditions: 4 hours, final concentrations ranging from 0.3-0.0000018 μM, relative to fulvestrant 0.1 μM positive control
# Description: Test: Estrogen Receptor Degradation Activity
# Said test involves measuring the in vitro degradation activity of the compounds of the invention.
# The measurements of the degradation activities were made using a breast cancer cell ERα in cell western assay as described hereunder.
# MCF7 cells (ATCC) were seeded in 384 wells microplate (collagen coated) at a concentration of 10000 cells/30 μL, per well in red phenol free MEM alpha medium (invitrogen) containing 5% charcoal dextran striped FBS. The following day, 9 points serial 1:5 dilution of each compound was added to the cells in 2.5 μL at final concentrations ranging either from 3-0.000018 μM (column «% Degradation at 3 μM in table 2) or from 0.3-0.0000018 μM (column «% Degradation at 0.3 μM in table 2), or 0.1 μM for fulvestrant (using as positive control). At 4 hours post compound addition the cells were fixed by adding 25 μL of formalin (final concentration 5% formalin containing 0.1% triton) for 10 minutes at room temperature and then washed twice with PBS. Then, 50 μL of LI-COR blocking buffer containing 0.1% Triton was added to plate for 30 minutes at room temperature. LI-COR blocking buffer was removed and cells were incubated overnight at cold room with 50 μL anti-ER rabbit monoclonal antibody (Thermo scientific MA1-39540) diluted at 1:1000 in LI-COR blocking buffer containing 0.1% tween-20. Wells which were treated with blocking buffer but no antibody were used as background control. Wells were washed twice with PBS (0.1% tween-20) and incubated at 37° C. for 60 minutes in LI-COR (0.1% tween-20) containing goat anti-rabbit antibody Alexa 488 (1:1000) and Syto-64 a DNA dye ([…]). Cells were then washed 3 times in PBS and scanned in ACUMEN explorer (TTP-Labtech). Integrated intensities in the green fluorescence and red fluorescence were measured to determine the levels of ERα and DNA respectively.
row,SMILES,% Degradation At 0.3 μM
1,"O=C(Nc1ccc2c(c1)CCCC(c1ccc(Cl)cc1Cl)=C2c1ccc(O[C@H]2CCN(CCCF)C2)cc1)C1(F)CC1 [Example 66, (S)—N-(8-(2,4-dichlorophenyl)-9-(4-((1-(3-fluoropropyl)pyrrolidin-3-yl)oxy)phenyl)-6,7-dihydro-5H-benzo[7]annulen-3-yl)-1-fluorocyclopropane-1-carboxamide]",74%
2,"CCOc1ccc(C2=C(c3ccc(O[C@H]4CCN(CCCF)C4)cc3)c3ccc(C#N)cc3CCC2)c(F)n1 [Example 80, (S)-8-(6-ethoxy-2-fluoropyridin-3-yl)-9-(4-((1-(3-fluoropropyl)pyrrolidin-3-yl)oxy)phenyl)-6,7-dihydro-5H-benzo[7]annulene-3-carbonitrile 2,2,2-trifluoroacetate]",90%
3,"OB(O)c1ccc2c(c1)CCCC(c1ccccc1)=C2c1ccc(O[C@H]2CCN(CCCF)C2)cc1 [Example 92, (S)-(9-(4-((1-(3-fluoropropyl)pyrrolidin-3-yl)oxy)phenyl)-8-phenyl-6,7-dihydro-5H-benzo[7]annulen-3-yl)boronic acid]",85%
4,"O=C(c1ccc2c(c1)CCCC(c1ccc(Cl)cc1Cl)=C2c1ccc(O[C@H]2CCN(CCCF)C2)cc1)N1CC(O)C1 [Example 74, (S)-(8-(2,4-dichlorophenyl)-9-(4-((1-(3-fluoropropyl)pyrrolidin-3-yl)oxy)phenyl)-6,7-dihydro-5H-benzo[7]annulen-3-yl)(3-hydroxyazetidin-1-yl)methanone]",59%
5,"CC1(C)OB(c2ccc3c(c2)CCCC(c2ccccc2)=C3c2ccc(O[C@H]3CCN(CCCF)C3)cc2)OC1(C)C [Example 91, (S)-1-(3-fluoropropyl)-3-(4-(8-phenyl-3-(4,4,5,5-tetramethyl-1,3,2-dioxaborolan-2-yl)-6,7-dihydro-5H-benzo[7]annulen-9-yl)phenoxy)pyrrolidine]",90%
6,"CC(C)(O)c1ccc(-c2ccc3c(c2)CCCC(c2cccc(F)c2Cl)=C3c2ccc(O[C@H]3CCN(CCCF)C3)cc2)cc1 [Example 98, (S)-2-(4-(8-(2-chloro-3-fluorophenyl)-9-(4-((1-(3-fluoropropyl)pyrrolidin-3-yl)oxy)phenyl)-6,7-dihydro-5H-benzo[7]annulen-3-yl)phenyl)propan-2-ol]",59%
7,"O=C(O)c1ccc(-c2ccc3c(c2)CCCC(c2ccc(Cl)cc2Cl)=C3c2ccc(O[C@H]3CCN(CCCF)C3)cc2)cc1 [Example 72, (S)-4-(8-(2,4-dichlorophenyl)-9-(4-((1-(3-fluoropropyl)pyrrolidin-3-yl)oxy)phenyl)-6,7-dihydro-5H-benzo[7]annulen-3-yl)benzoic acid]",74%
8,"CS(=O)(=O)Nc1ccc2c(c1)CCCC(c1cccc(F)c1Cl)=C2c1ccc(O[C@H]2CCN(CCCF)C2)cc1 [Example 90, (S)—N-(8-(2-chloro-3-fluorophenyl)-9-(4-((1-(3-fluoropropyl)pyrrolidin-3-yl)oxy)phenyl)-6,7-dihydro-5H-benzo[7]annulen-3-yl)methanesulfonamide]",77%
9,"CC(C)(O)c1cccc(-c2ccc3c(c2)CCCC(c2ccc(Cl)cc2Cl)=C3c2ccc(O[C@H]3CCN(CCCF)C3)cc2)c1 [Example 94, (S)-2-(3-(8-(2,4-dichlorophenyl)-9-(4-((1-(3-fluoropropyl)pyrrolidin-3-yl)oxy)phenyl)-6,7-dihydro-5H-benzo[7]annulen-3-yl)phenyl)propan-2-ol]",64%
10,"O=C1C[C@H](O)CN1c1ccc2c(c1)CCCC(c1ccc(Cl)cc1Cl)=C2c1ccc(O[C@H]2CCN(CCCF)C2)cc1 [Example 85, (S)-1-(8-(2,4-dichlorophenyl)-9-(4-(((S)-1-(3-fluoropropyl)pyrrolidin-3-yl)oxy)phenyl)-6,7-dihydro-5H-benzo[7]annulen-3-yl)-4-hydroxypyrrolidin-2-one]",69%

# Same assay, conditions: 4 hours, final concentrations ranging from 3-0.000018 μM, relative to fulvestrant 0.1 μM positive control
row,SMILES,% Degradation At 3 μM
1,"FCCCN1CC[C@H](Oc2ccc(C3=C(c4ccc(Cl)cc4Cl)CCCc4cc(-c5noc(=S)[nH]5)ccc43)cc2)C1 [Example 34, (S)-3-(8-(2,4-dichlorophenyl)-9-(4-((1-(3-fluoropropyl)pyrrolidin-3-yl)oxy)phenyl)-6,7-dihydro-5H-benzo[7]annulen-3-yl)-1,2,4-oxadiazole-5(4H)-thione]",66%
2,"CON(C)C(=O)c1ccc2c(c1)CCCC(c1ccc(Cl)cc1Cl)=C2c1ccc(O[C@H]2CCN(CCCF)C2)cc1 [Example 44, (S)-8-(2,4-dichlorophenyl)-9-(4-((1-(3-fluoropropyl)pyrrolidin-3-yl)oxy)phenyl)-N-methoxy-N-methyl-6,7-dihydro-5H-benzo[7]annulene-3-carboxamide]",50%
3,"O=C1CC(c2ccc3c(c2)CCCC(c2ccc(Cl)cc2Cl)=C3c2ccc(O[C@H]3CCN(CCCF)C3)cc2)=NO1 [Example 13, (S)-3-(8-(2,4-dichlorophenyl)-9-(4-((1-(3-fluoropropyl)pyrrolidin-3-yl)oxy)phenyl)-6,7-dihydro-5H-benzo[7]annulen-3-yl)isoxazol-5(4H)-one]",76%
4,"CC(=N)Nc1ccc2c(c1)CCCC(c1ccc(Cl)cc1Cl)=C2c1ccc(O[C@H]2CCN(CCCF)C2)cc1 [Example 46, (S)—N-(8-(2,4-dichlorophenyl)-9-(4-((1-(3-fluoropropyl)pyrrolidin-3-yl)oxy)phenyl)-6,7-dihydro-5H-benzo[7]annulen-3-yl)acetimidamide]",95%
5,"O=C(Nc1ccc2c(c1)CCCC(c1ccc(Cl)cc1Cl)=C2c1ccc(O[C@H]2CCN(CCCF)C2)cc1)C(F)(F)F [Example 47, (S)—N-(8-(2,4-dichlorophenyl)-9-(4-((1-(3-fluoropropyl)pyrrolidin-3-yl)oxy)phenyl)-6,7-dihydro-5H-benzo[7]annulen-3-yl)-2,2,2-trifluoroacetamide]",78%
6,"N#Cc1ccc2c(c1)CCCC(c1ccc(Cl)cc1Cl)=C2c1ccc(O[C@H]2CCN(CCCF)C2)cc1 [Example 22, (S)-8-(2,4-dichlorophenyl)-9-(4-((1-(3-fluoropropyl)pyrrolidin-3-yl)oxy)phenyl)-6,7-dihydro-5H-benzo[7]annulene-3-carbonitrile]",82%
7,"Cl.O=S1NC(c2ccc3c(c2)CCCC(c2ccc(Cl)cc2Cl)=C3c2ccc(O[C@H]3CCN(CCCF)C3)cc2)=NO1 (stereo partly drawn) [Example 29, 4-(8-(2,4-dichlorophenyl)-9-(4-(((S)-1-(3-fluoropropyl)pyrrolidin-3-yl)oxy)phenyl)-6,7-dihydro-5H-benzo[7]annulen-3-yl)-3H-1,2,3,5-oxathiadiazole 2-oxide hydrochloride]",91%
8,"FCCCN1CC[C@H](Oc2ccc(C3=C(c4ccc(Cl)cc4Cl)CCCc4cc(-c5nn[nH]n5)ccc43)cc2)C1 [Example 16, (S)-5-(8-(2,4-dichlorophenyl)-9-(4-((1-(3-fluoropropyl)pyrrolidin-3-yl)oxy)phenyl)-6,7-dihydro-5H-benzo[7]annulen-3-yl)-2H-tetrazole]",86%
9,"O=c1cc(-c2ccc3c(c2)CCCC(c2ccc(Cl)cc2Cl)=C3c2ccc(O[C@H]3CCN(CCCF)C3)cc2)[nH][nH]1 [Example 12, (S)-5-(8-(2,4-dichlorophenyl)-9-(4-((1-(3-fluoropropyl)pyrrolidin-3-yl)oxy)phenyl)-6,7-dihydro-5H-benzo[7]annulen-3-yl)-1,2-dihydro-3H-pyrazol-3-one]",83%
10,"O=c1oc(-c2ccc3c(c2)CCCC(c2ccc(Cl)cc2Cl)=C3c2ccc(O[C@H]3CCN(CCCF)C3)cc2)ns1 [Example 33, (S)-5-(8-(2,4-dichlorophenyl)-9-(4-((1-(3-fluoropropyl)pyrrolidin-3-yl)oxy)phenyl)-6,7-dihydro-5H-benzo[7]annulen-3-yl)-1,3,4-oxathiazol-2-one]",95%
